Source: patent US20100004159A1, “SUBSTITUTED IMIDAZOLONE DERIVATIVES, PREPARATIONS AND USES” (GENFIT, priority 2006, published 2010)

Key:
[1] = biological target: T1, hPPARγ (Homo sapiens, UniProt P37231); assay: Gal4-hPPARγ transactivation in COS-7 cells (luciferase); format: cell-based; details: for EC50: Gal4-hPPARγ chimera, COS-7 cells, 24 hours
T1 construct: DNA fragments amplified by PCR and corresponding to the DEF domains of human PPARα, PPARγ, and PPARδ nuclear receptors; expressed in transfected cells; host or cells: COS-7
T1 sequence (P37231 238-503 limits assumed): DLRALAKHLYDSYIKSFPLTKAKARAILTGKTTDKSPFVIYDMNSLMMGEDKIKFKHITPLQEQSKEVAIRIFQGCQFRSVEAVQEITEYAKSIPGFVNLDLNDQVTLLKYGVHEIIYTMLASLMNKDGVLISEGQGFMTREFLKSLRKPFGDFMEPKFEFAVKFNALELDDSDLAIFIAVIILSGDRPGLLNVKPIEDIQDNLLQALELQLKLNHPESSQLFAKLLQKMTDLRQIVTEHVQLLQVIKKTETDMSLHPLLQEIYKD
Protocol: The activation of PPARs was evaluated in vitro using a monkey kidney fibroblast line (COS-7) by measuring the transcriptional activity of chimeras made up of the DNA binding domain of the Gal4 transcription factor of yeast and of the binding domain to the ligand of the different PPARs. The compounds were tested at doses of between 0.01 and 100 μM on Gal4-PPARα, γ, and δ chimeras.
COS-7 cells came from ATCC (American type culture collection) and were cultivated in a DMEM medium supplemented with 10% (vol/vol) of fetal calf serum, 100 U/ml of penicillin (Gibco, Paisley, UK) and 2 mM of L-Glutamine (Gibco, Paisley, UK). The cells were incubated at 37° C. under humid atmosphere containing 5% CO2.
The plasmids Gal4(RE)_TkpGL3, pGal4-hPPARα, pGal4-hPPARγ, pGal4-hPPARδ and pGal4-φ have been described in the literature (Raspe E et al., 1999). The constructions pGal4-hPPARα, pGal4-hPPARγ, and pGal4-hPPARδ were obtained by cloning, in the pGal4-φ vector, DNA fragments amplified by PCR and corresponding to the DEF domains of human PPARα, PPARγ, and PPARδ nuclear receptors.
The COS-7 cells in suspension were transfected with 150 ng of DNA per well, with a pGal4-PPAR/Gal4(RE)_TkpGL3 ratio of 1/10, in presence of 10% fetal calf serum. The cells were then plated in 96-well plates (4×10^4 cells/well), then incubated for 24 hours at 37° C. Activation with the test compounds was performed for 24 hours at 37° C. in a medium without serum. At the end of the experiment, the cells were lysed and the luciferase activity was determined using the Steady-Lite™ HTS (Perkin Elmert) or the Steady Glow Luciferase kit (Promega), in accordance with the provider's recommendations.
The compounds according to the invention were tested at doses between 0,01 and 100 μM on the 3 PPAR isoforms. The results obtained are presented in detail under FIG. 1a.

[2] = system: Wistar rats under repeated administrations of angiotensin II; assay: Arterial pressure of Wistar rats under repeated administration of angiotensin II; format: in vivo, rat; details: angiotensin II boluses 50, 100 and 200 ng/kg; single intravenous dose 20 mpk
Protocol: This experimental procedure is intended to show the anti-hypertensive effects of the compounds according to the invention in Wistar rats in which hypertension is induced either by continuous intravenous administration of angiotensin II (example 21.1) or by repeated intravenous administration of angiotensin II (example 21.2). The animals were treated with the compounds according to the invention intravenously at increasing doses. To validate the study, the control animals were administered, in the same conditions, either the vehicle itself or a reference.
Wistar rats (males—200-250 g—5-6 weeks old—CERJ) were anesthetized for surgery using pentobarbital (50 mg/kg). A catheter was placed in the right jugular vein for angiotensin II administration. A catheter was placed in the left jugular vein the administration of the compounds according to the invention. Boluses of angiotensin II were performed at predetermined intervals by the experimenter using a manual syringe.
The arterial pressure of the animal was measured for a few minutes at basal conditions; then three successive intravenous administrations of angiotensin II (50, 100, and 200 ng/kg) were performed. At every bolus of angiotensin II, the average arterial pressure, expressed in mm of Hg, increased in a very temporary way. […]

activation of hPPARγ (luciferase activity) ([1]; COS-7 cells transfected pGal4-hPPAR, 0.01 to 100 μM) | EC50 [1] | SMILES | difference of arterial pressure: antagonist effect on angiotensin II [2]
activate the two PPAR isoforms | 8 µM | CCCCC1=NC2(CCCC2)C(=O)N1Cc1ccc(-c2cccc(OC(C)(C)C(=O)O)c2)cc1 [Compound 1, 2-butyl-1-[(3′-((1-carboxy-1,1-dimethylmethyl)oxy)biphenyl-4-yl)methyl]-4-spirocyclopentyl-1H-imidazol-5(4H)-one] | antagonist effect on angiotensin II
 | 1 µM | CCCCC1=NC2(CCCCC2)C(=O)N1Cc1ccc(-c2cccc(OC(C)(C)C(=O)O)c2)cc1 [Compound 21, 2-butyl-1-[(3′-((1-carboxy-1,1-dimethylmethyl)oxy)biphenyl-4-yl)methyl]-4-spirocyclohexyl-1H-imidazol-5(4H)-one] | 
